{
  "source": "patent US7294715B2",
  "about": "“Aporphine and oxoaporphine compounds and pharmaceutical use thereof” (Lotus Pharmaceutical Co., Ltd., priority 2003, dated 2007)",
  "key": {"[1]": {"system": "MCAO rats", "assay": "Middle cerebral artery occlusion (MCAO) cerebral ischemia lesions in rats", "format": "in vivo, rat", "source_text": "The same effects of preventing the ischemia-reperfusion damages with aporphine and oxoaporphine compounds also found in the other organs, such as brain. After Compound 16 or Compound 21, which is a compound of Formula B (where R1, R2, R5, R6 are OMe, R3, R4, R7 are H) was administrated to male Sprague Dawley rats, the effects of test compounds on the artery occlusive cerebral ischemia in the rats were monitored. First, permanent brain ischemia was induced by middle cerebral artery occlusion (MCAO) in the rats. At 0, 6, 24, 48, and 54 hours after the formation of middle cerebral artery occlusion (MCAO), Group I (i.e., the control group) animals were given the solvent (100% DMSO) (1 ml/kg, i.p.); Group II (i.e., the control group) animals were given the distilled water (D.W.) (1 ml/kg, i.p.);Group III animals (NCM-121) were given Compound 16 (1.5 mg/kg, i.p.); Group IV animals (NCM-124) were given Compound 21 (1.7 mg/kg, i.p); Group V animals were given MK-801 (0.3 mg/kg, i.p.), an antagonist of the N-methyl-D-aspartic acid (NMDA) receptor. There were ten rats in each group. Four days after the formation of MCAO, all the rats were sacrificed. Brain sections were made and stained with 2% cresol purple. The areas and volumes of cerebral ischemia lesions in each section were recorded."}, "[2]": {"system": "reperfusion induced arrhythmia in rats", "assay": "Reperfusion induced arrhythmia in rats", "format": "in vivo, rat", "conditions": "for Ventricular tachycardia Duration: vehicle 46.6 ± 17.5; for Ventricular tachycardia Incident (%): vehicle 100; for Ventricular fibrillation Duration: vehicle 124.2 ± 25.9", "experimental": "Opened-chest SD (Sprague-Dawley) anesthetized rats underwent myocardial ischemia by 5 min-occlusion of the left main coronary artery and followed by 30 min-reperfusion. During the myocardium reperfusion period, heart rate, blood pressure and EKG changes were recorded. Ventricular ectopic activity was evaluated according to the diagnostic criteria advocated by the Lambeth Convention. The incidences and durations of ventricular tachycardia and ventricular fibrillation were determined."}, "[3]": {"assay": "Safety at multiples of the effective dose in rabbits", "conditions": "10-100 times the effective dose"}, "[4]": {"system": "Langendorff perfused rat hearts", "assay": "Coronary flow in Langendorff perfused rat hearts", "conditions": "FIG. 3", "experimental": "Adult male Wistar rats weighing 275-325 g, were intraperitoneally anesthetized with sodium pentobarbital (50 mg·kg^−1) and given heparin (300 Ukg·kg^−1) by the same route. Hearts were rapidly excised and immersed in 37° C. perfusion medium. The aorta was cannulated and retrograde-perfused at 80 mmHg with Tyrode's solution containing 120 mM NaCl, 25 mM NaHCO3, 3 mM KCl, 1.2 mM NaH2PO4, 2.5 mM CaCl2, 1.2 mM MgCl2, and […] 5.5 mM glucose. The perfusate was equilibrated with 95% O2, 5% CO2 at 37° C. Perfusion pressure was monitored using a MLT844/D pressure transducer (Capto, Horten, Norway) connected to a PowerLab (ADInstruments, Castle Hill, Australia). The coronary effluent was collected for the measurement of coronary flow."}, "[5]": {"conditions": "iv infusion 0.5 ug/kg, vehicle 80"}, "[6]": {"conditions": "iv infusion 5 ug/kg, vehicle 80"}},
  "note": "Marks after values point to notes of the source that are not given here.",
  "data": [
    {"smiles": "COc1cc2c(cc1OC)-c1c(OC)c(OC)cc3c1C(C2)N(CCOc1ccccc1OC)CC3", "note": "(centres unmarked) [Compound 16, N-[2-(2-methoxyphenoxyl)]ethylnorglaucine]", "values": [
      {"measurement": "Infarcted Volume (X ± SEM mm^3)", "setting": "[1]; IP 1.5 mg/kg × 6, N=10, four days after MCAO, vehicle 100% DMSO 154.17 ± 16.69", "result": "60.14 ± 24.49* mm^3"},
      {"measurement": "% Decrease in total volume of ischemic lesions", "setting": "[1]; IP 1.5 mg/kg × 6, vs Group I vehicle (100% DMSO)", "result": 60.99, "unit": "%"},
      {"measurement": "effects in reducing the areas and volumes of cerebral ischemia lesions as compared with MK-801", "setting": "[1]; comparison in words", "result": "more significant effects"},
      {"measurement": "Ventricular tachycardia Duration", "setting": "[2]; iv infusion 0.5 ug/kg", "result": "23.3 ± 4.8", "unit": "s"},
      {"measurement": "Mortality (%)", "setting": "[2]; [5]", "result": 62, "unit": "%"},
      {"measurement": "Ventricular fibrillation Incident (%)", "setting": "[2]; [5]", "result": 85, "unit": "%"},
      {"measurement": "Ventricular tachycardia Incident (%)", "setting": "[2]; iv infusion 0.5 ug/kg", "result": 92, "unit": "%"},
      {"measurement": "Ventricular fibrillation Duration", "setting": "[2]; iv infusion 0.5 ug/kg", "result": "111.5 ± 24.4", "unit": "s"},
      {"measurement": "Ventricular tachycardia Duration", "setting": "[2]; iv infusion 5 ug/kg", "result": "27.9 ± 7.9", "unit": "s"},
      {"measurement": "Mortality (%)", "setting": "[2]; [6]", "result": 46, "unit": "%"},
      {"measurement": "Ventricular fibrillation Incident (%)", "setting": "[2]; [6]", "result": 82, "unit": "%"},
      {"measurement": "Ventricular tachycardia Incident (%)", "setting": "[2]; iv infusion 5 ug/kg", "result": 91, "unit": "%"},
      {"measurement": "Ventricular fibrillation Duration", "setting": "[2]; iv infusion 5 ug/kg", "result": "72.2 ± 22.9", "unit": "s"},
      {"measurement": "Ventricular tachycardia Duration", "setting": "[2]; iv infusion 50 ug/kg", "result": "9.8 ± 8.8", "unit": "s"},
      {"measurement": "Ventricular fibrillation Incident (%)", "setting": "[2]; iv infusion 50 ug/kg, vehicle 80", "result": 54, "unit": "%"},
      {"measurement": "Mortality (%)", "setting": "[2]; iv infusion 50 ug/kg, vehicle 80, p < 0.05 vs vehicle", "result": "23* %"},
      {"measurement": "Ventricular tachycardia Incident (%)", "setting": "[2]; iv infusion 50 ug/kg", "result": 85, "unit": "%"},
      {"measurement": "Ventricular fibrillation Duration", "setting": "[2]; iv infusion 50 ug/kg", "result": "42.3 ± 18.6", "unit": "s"},
      {"measurement": "animal deaths", "setting": "[3]", "result": "no animals died"},
      {"measurement": "coronary blood flow", "setting": "[4]", "result": "increasing coronary blood flow"}
    ]}
  ]
}
